Calls of active or inactive are those of the source. No cut-off for these calls is given here.
What was measured:
U-87 MG [1] = assay: Antiproliferation activity against human U-87 MG cells assessed as growth inhibition measured after 1 hr by MTT assay; assay type: functional, cell-based, U-87MG ATCC
U-87 MG [2] = assay: Antiproliferation activity against human U-87 MG cells assessed as growth inhibition at 10 uM after 3 days by MTT assay; assay type: functional, U-87MG ATCC; details: 72 h, time 3 day
U-87 MG [3] = assay: Antiproliferation activity against TMZ resistant human U-87 MG R-50 cells assessed as growth inhibition at 3 uM by MTT assay; assay type: functional, cell-based; details: U-87MG ATCC
Glioblastoma cell line [4] = assay: Antiproliferation activity against TMZ resistant human glioblastoma cell P1S assessed as growth inhibition at 3 uM by MTT assay; assay type: functional
A 172 [5] = assay: Downregulation of PCNA expression in human A 172 cells upto 10 uM measured after 24 hrs by Western blot analysis; assay type: functional, cell-based; details: dose microM <=10, time 24.0 hrs
A 172 [6] = assay: Induction of cell cycle arrest in human A 172 cells assessed as accumulation at G2/M phase by propidium iodide staining based flow cytometric analysis; assay type: functional; details: dose microM <=10
A 172 [7] = assay: Induction of cell cycle arrest in human A 172 cells assessed as accumulation at G0/G1 phase by propidium iodide staining based flow cytometric analysis; assay type: functional; details: dose microM <=10
A 172 [8] = assay: Induction of cell cycle arrest in human A 172 cells assessed as increase in histone H3-K9/K14 acetylation upto 10 uM for 24 hrs by Western blot analysis; assay type: functional, cell-based; details: dose microM <=10, time 24.0 hrs
A 172 [9] = assay: Induction of cell cycle arrest in human A 172 cells assessed as increase in histone H3-S10 dephosphorylation upto 10 uM for 24 hrs by Western blot analysis; assay type: functional, cell-based; details: dose microM <=10, time 24.0 hrs
A 172 [10] = assay: Induction of cell cycle arrest in human A 172 cells assessed as increase in histone alpha-tubulin-K40 acetylation upto 10 uM for 24 hrs by Western blot analysis; assay type: functional, cell-based; details: dose microM <=10, time 24.0 hrs
A 172 [11] = assay: Induction of apoptosis in human A 172 cells assessed as upregulation of activated caspase 3 protein at 3 uM after 24 hrs by western blot analysis; assay type: functional, cell-based
A 172 [12] = assay: Induction of apoptosis in human A 172 cells assessed as upregulation of cleaved PARP at 3 uM after 24 hrs by western blot analysis; assay type: functional, cell-based
A 172 [13] = assay: Cytotoxicity against TMZ-resistant human A 172 cells assessed as reduction in cell viability upto 72 hrs by MTT assay; assay type: functional, cell-based; details: dose microM <=30, time hrs <=72
U-87 MG [14] = assay: Cytotoxicity against human U-87 MG cells assessed as reduction in cell viability upto 72 hrs by MTT assay; assay type: functional, cell-based; details: U-87MG ATCC, dose microM <=30, time hrs <=72
U-87 MG [15] = assay: Cytotoxicity against TMZ-resistant human U-87 MG cells assessed as reduction in cell viability upto 72 hrs by MTT assay; assay type: functional, cell-based; details: U-87MG ATCC, dose microM <=30, time hrs <=72
Glioblastoma cell line [16] = assay: Cytotoxicity against human glioblastoma cell P5 cells assessed as reduction in cell viability upto 72 hrs by MTT assay; assay type: functional, cell-based; details: dose microM <=30, time hrs <=72
Glioblastoma cell line [17] = assay: Cytotoxicity against TMZ-resistant human glioblastoma cell P5 cells assessed as reduction in cell viability upto 72 hrs by MTT assay; assay type: functional, cell-based; details: dose microM <=30, time hrs <=72
Glioblastoma cell line [18] = assay: Cytotoxicity against human glioblastoma cell P1S cells assessed as reduction in cell viability upto 72 hrs by MTT assay; assay type: functional, cell-based; details: dose microM <=30, time hrs <=72
Histone deacetylase 1 = Histone deacetylase 1 (Homo sapiens, UniProt Q13547); assay: Inhibition of human recombinant HDAC1 expressed in baculovirus infected insect cells using [RHKK(Ac)] fluorogenic substrate
Chain of Histone deacetylase 1 (Q13547 whole entry): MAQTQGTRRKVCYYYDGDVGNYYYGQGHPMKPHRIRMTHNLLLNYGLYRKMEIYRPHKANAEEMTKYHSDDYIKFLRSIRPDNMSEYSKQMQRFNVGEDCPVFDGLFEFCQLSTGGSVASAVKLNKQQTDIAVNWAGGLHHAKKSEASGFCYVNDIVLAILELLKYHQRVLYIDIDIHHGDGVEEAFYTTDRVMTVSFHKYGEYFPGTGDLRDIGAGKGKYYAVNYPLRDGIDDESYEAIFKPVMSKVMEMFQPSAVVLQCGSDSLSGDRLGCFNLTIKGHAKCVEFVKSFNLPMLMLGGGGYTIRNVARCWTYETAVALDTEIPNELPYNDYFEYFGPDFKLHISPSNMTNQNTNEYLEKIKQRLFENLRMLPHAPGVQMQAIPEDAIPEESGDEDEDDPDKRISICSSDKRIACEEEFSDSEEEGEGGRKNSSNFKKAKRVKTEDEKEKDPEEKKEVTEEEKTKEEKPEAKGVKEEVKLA

Histone deacetylase 8 = target: T1, Histone deacetylase 8 (Homo sapiens, UniProt Q9BY41); assay: Inhibition of human recombinant HDAC8 using [RHKK(Ac)] fluorogenic substrate
T1 sequence (Q9BY41 whole entry): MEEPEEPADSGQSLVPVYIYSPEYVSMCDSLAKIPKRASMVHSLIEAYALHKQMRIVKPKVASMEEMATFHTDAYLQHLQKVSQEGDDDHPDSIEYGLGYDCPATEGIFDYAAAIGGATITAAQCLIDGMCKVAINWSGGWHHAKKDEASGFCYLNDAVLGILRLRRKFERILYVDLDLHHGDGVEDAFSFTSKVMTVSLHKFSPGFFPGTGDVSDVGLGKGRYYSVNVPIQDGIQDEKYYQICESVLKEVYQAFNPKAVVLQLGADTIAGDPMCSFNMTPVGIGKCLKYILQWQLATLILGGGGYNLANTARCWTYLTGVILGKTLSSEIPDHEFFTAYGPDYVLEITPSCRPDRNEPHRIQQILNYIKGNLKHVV

[19] = Permeability of compound by PAMPA-BBB assay
U-87 MG [20] = assay: Antitumor activity in TMZ-resistant human U-87 MG cells transplanted in BALB/C mouse assessed as increase in mouse survival at 10 mg/kg, ip measured for every 2 days measured for 40 days; assay type: functional, organism-based; details: U-87MG ATCC, time 40.0 day
U-87 MG [21] = assay: Cytotoxicity against human U-87 MG cells assessed as reduction in cell viability upto 30 uM by MTT assay; assay type: functional, cell-based; details: U-87MG ATCC, dose microM <=30, time hrs <=72, TDE = time-dependent effect
Glioblastoma cell line [22] = assay: Cytotoxicity against TMZ-resistant human glioblastoma cell P3 cells assessed as reduction in cell viability upto 30 uM by MTT assay; assay type: functional, cell-based; details: dose microM <=30, time hrs <=72, TDE = time-dependent effect
Glioblastoma cell line [23] = assay: Cytotoxicity against TMZ-resistant human glioblastoma cell P5 cells assessed as reduction in cell viability upto 30 uM by MTT assay; assay type: functional, cell-based; details: dose microM <=30, time hrs <=72, TDE = time-dependent effect
Glioblastoma cell line [24] = assay: Cytotoxicity against human glioblastoma cell P1S cells assessed as reduction in cell viability upto 30 uM by MTT assay; assay type: functional, cell-based; details: dose microM <=30, time hrs <=72, TDE = time-dependent effect

Structure (SMILES): CC12CC3CC(C)(C1)CC(NCc1ccc(NC(=O)CCCCCCC(=O)NO)cc1)(C3)C2
- IC50 (U-87 MG [1]): 2950 nM
- inhibition at 10 µM (U-87 MG [2]): 90%
- Activity (U-87 MG [3]): inactive
- Activity (Glioblastoma cell line [4]): inactive
- Activity (A 172 [5]): inactive
- Activity (A 172 [6]): Dose-Dependent Effect
- Activity (A 172 [7]): Dose-Dependent Effect
- Activity (A 172 [8]): Active
- Activity (A 172 [9]): Active
- Activity (A 172 [10]): Active
- Activity (A 172 [11]): Active
- Activity (A 172 [12]): Active
- Activity (A 172 [13]): Dose-Dependent Effect
- Activity (U-87 MG [14]): Dose-Dependent Effect
- Activity (U-87 MG [15]): Dose-Dependent Effect
- Activity (Glioblastoma cell line [16]): Dose-Dependent Effect
- Activity (Glioblastoma cell line [17]): Dose-Dependent Effect
- Activity (Glioblastoma cell line [18]): Dose-Dependent Effect
- IC50 (Histone deacetylase 1): 347 nM
- IC50 (Histone deacetylase 8): 638 nM
- Papp [19]: 339 ×10⁻⁶ cm/s
- Activity (U-87 MG [20]): Active
- Activity (U-87 MG [21]): Tde
- Activity (Glioblastoma cell line [22]): Tde
- Activity (Glioblastoma cell line [23]): Tde
- Activity (Glioblastoma cell line [24]): Tde

From ChEMBL document CHEMBL4814005, “Pragmatic recruitment of memantine as the capping group for the design of HDAC inhibitors: A preliminary attempt to unravel the enigma of glioblastoma” (Eur J Med Chem, 2021)
